Experimental data reported in article PMC7413254 (Nature Communications, 2020).
Where two headings read alike, the source gives them in different places.

Key:
Conditions in all cases: trans-stimulation, solute 2 mM
non-expressing oocytes = assay type: cell-based, Xenopus laevis
Outline: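 Oocytes (ten per treatment, ≥4 independent frogs/days) were preloaded by injecting VF-6 in 25 nL ND96 at pH 5.0, 5.5, 6.0 or 7.0, or Na^+-free choline buffer, then uptake run 1.5 h, 27.5 °C, ND96 pH 5.5 by default. Internal concentrations assumed ~400 nL oocyte volume.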

PfCRT^Ecu1110 = PfCRT^Ecu1110 (Plasmodium falciparum, UniProt Q9N623, A220S/I356L/K76T/N326D); assay: cell-based; assay type: cell-based
PfCRT^Ecu1110, sequence (Q9N623 whole entry A220S/I356L/K76T/N326D): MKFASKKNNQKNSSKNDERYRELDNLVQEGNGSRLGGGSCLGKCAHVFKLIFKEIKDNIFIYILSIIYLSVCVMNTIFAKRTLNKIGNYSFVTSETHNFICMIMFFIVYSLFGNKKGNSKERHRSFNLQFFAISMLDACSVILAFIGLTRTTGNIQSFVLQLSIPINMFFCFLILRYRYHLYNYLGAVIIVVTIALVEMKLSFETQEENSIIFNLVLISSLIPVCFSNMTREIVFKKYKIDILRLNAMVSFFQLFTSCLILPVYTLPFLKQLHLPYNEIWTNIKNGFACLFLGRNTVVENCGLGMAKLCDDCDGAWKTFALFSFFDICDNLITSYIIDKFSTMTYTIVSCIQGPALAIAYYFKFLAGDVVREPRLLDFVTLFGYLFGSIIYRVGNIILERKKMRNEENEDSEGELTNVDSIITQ
Outline: (§1)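 Transport measured in Xenopus oocytes expressing the transporters, 1.5 h at 27.5 °C in ND96 pH 5.5 unless noted. For trans-stimulation, VF-6 injected in 25 nL ND96 at pH 5.0–7.0 or Na^+-free (choline) buffer; intracellular levels based on ~400 nL oocyte volume. Ten oocytes per treatment, ≥4 experiments.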

PfCRT^3D7 = PfCRT^3D7 (Plasmodium falciparum, UniProt Q8IBZ9); assay: cell-based; assay type: cell-based
PfCRT^3D7, sequence (Q8IBZ9 59-398): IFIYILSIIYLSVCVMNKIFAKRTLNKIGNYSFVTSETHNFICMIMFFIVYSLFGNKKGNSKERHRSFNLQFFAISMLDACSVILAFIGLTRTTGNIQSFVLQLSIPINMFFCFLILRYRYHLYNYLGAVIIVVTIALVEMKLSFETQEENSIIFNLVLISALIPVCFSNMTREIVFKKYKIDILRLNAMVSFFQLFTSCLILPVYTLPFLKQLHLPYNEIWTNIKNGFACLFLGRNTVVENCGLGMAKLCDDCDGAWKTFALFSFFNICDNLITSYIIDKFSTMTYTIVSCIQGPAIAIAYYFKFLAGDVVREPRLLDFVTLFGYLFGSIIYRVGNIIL
Outline: as §1

PfNT1 = molecular target: T1, PfNT1 (Plasmodium falciparum, UniProt Q8IDM6); assay: cell-based; assay type: cell-based
T1 construct: expressed in transfected cells; host or cells: Xenopus laevis oocytes (stage V-VI), cRNA-injected
T1 sequence (Q8IDM6 whole entry): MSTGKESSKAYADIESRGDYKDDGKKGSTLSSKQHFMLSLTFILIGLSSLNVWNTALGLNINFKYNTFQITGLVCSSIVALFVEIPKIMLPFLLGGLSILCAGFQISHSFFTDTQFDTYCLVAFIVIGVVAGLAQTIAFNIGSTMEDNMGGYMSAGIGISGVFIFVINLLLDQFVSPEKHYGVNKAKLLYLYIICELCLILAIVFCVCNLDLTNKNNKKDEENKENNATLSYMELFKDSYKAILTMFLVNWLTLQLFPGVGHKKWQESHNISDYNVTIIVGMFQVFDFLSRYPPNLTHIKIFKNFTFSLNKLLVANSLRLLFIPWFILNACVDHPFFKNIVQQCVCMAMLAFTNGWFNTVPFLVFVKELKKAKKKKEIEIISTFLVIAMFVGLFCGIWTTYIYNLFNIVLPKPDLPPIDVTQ
Outline: as §1

PfCRT^Dd2 = PfCRT^Dd2 (Plasmodium falciparum, UniProt Q9N623, A220S/I356T/K76T/M74I/N326S/N75E/Q271E/R371I); assay: cell-based; assay type: cell-based
PfCRT^Dd2, sequence (Q9N623 whole entry A220S/I356T/K76T/M74I/N326S/N75E/Q271E/R371I): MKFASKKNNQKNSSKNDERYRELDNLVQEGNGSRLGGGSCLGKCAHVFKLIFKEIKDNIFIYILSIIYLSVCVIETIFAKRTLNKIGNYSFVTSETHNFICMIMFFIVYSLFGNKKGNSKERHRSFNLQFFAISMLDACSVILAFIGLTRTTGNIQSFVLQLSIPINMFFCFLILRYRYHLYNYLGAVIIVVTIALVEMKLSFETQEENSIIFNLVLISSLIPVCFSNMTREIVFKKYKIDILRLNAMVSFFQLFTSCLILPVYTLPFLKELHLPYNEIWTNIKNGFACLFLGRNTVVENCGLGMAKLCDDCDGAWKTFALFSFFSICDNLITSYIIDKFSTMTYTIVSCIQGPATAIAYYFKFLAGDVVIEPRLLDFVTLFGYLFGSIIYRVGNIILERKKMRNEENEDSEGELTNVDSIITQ
Outline: as §1

In the case of DPVN [VF-6-derived peptide], the “[3H]CQ transport, non-expressing oocytes” value (non-expressing oocytes; Experiment 1) is reported as 2.53 % PfCRTDd2 control, the “[3H]CQ transport, non-expressing oocytes” value (non-expressing oocytes; Experiment 2) is reported as 2.64 % PfCRTDd2 control and the “[3H]CQ transport, non-expressing oocytes” value (non-expressing oocytes; Experiment 3) is reported as 2.41 % PfCRTDd2 control. The “[3H]CQ transport, non-expressing oocytes” value (non-expressing oocytes; Experiment 4) was 2.56 % PfCRTDd2 control, the “[3H]CQ transport, PfCRTEcu1110” value (PfCRT^Ecu1110; Experiment 1) was 32.63 % PfCRTDd2 control and the “[3H]CQ transport, PfCRTEcu1110” value (PfCRT^Ecu1110; Experiment 2) was 30.52 % PfCRTDd2 control. The “[3H]CQ transport, PfCRTEcu1110” value (PfCRT^Ecu1110; Experiment 3) was 37.36 % PfCRTDd2 control, the “[3H]CQ transport, PfCRTEcu1110” value (PfCRT^Ecu1110; Experiment 4) was 30.52 % PfCRTDd2 control and the “[3H]CQ transport, PfCRT3D7” value (PfCRT^3D7; Experiment 1) was 12.64 % PfCRTDd2 control. The “[3H]CQ transport, PfCRT3D7” value (PfCRT^3D7; Experiment 2) was 13.46 % PfCRTDd2 control, the “[3H]CQ transport, PfCRT3D7” value (PfCRT^3D7; Experiment 3) was 12.14 % PfCRTDd2 control and the “[3H]CQ transport, PfCRT3D7” value (PfCRT^3D7; Experiment 4) was 11.36 % PfCRTDd2 control. The “[3H]CQ transport, PfNT1” value (PfNT1; Experiment 1) was 3.52 % PfCRTDd2 control, the “[3H]CQ transport, PfNT1” value (PfNT1; Experiment 2) was 3.38 % PfCRTDd2 control and the “[3H]CQ transport, PfNT1” value (PfNT1; Experiment 3) was 3.26 % PfCRTDd2 control. For the same substance, the “[3H]CQ transport, PfNT1” value (PfNT1; Experiment 4) was 3.33 % PfCRTDd2 control, the “[3H]CQ transport, PfCRTDd2” value (PfCRT^Dd2; Experiment 1) was 100.43 % PfCRTDd2 control and the “[3H]CQ transport, PfCRTDd2” value (PfCRT^Dd2; Experiment 2) was 99.77 % PfCRTDd2 control. The “[3H]CQ transport, PfCRTDd2” value (PfCRT^Dd2; Experiment 3) was 98.92 % PfCRTDd2 control and the “[3H]CQ transport, PfCRTDd2” value (PfCRT^Dd2; Experiment 4) was 101.43 % PfCRTDd2 control.
